Data set [1] has as its system PCSK9. The experiment in a line: PCSK9 lowering in sandwich culture human hepatocytes (SCHH). It counts as cell-based. Conditions: maximum response versus vehicle; at 8 h at 100 μM.
In data set [2] the test system is human PCSK9. The experiment in a line: Cell Free PCSK9 Assay (PCSK9-luciferase RNA translated in HeLa cell lysate). Conditions: 30° C. for 45 minutes, luciferase readout, top concentration 100 μM. It counts as biochemical.
For data set [3], the system named is human PCSK9. Nature of the data set: PCSK9 AlphaLISA assay, PCSK9 lowering in WT7 cells. Conditions: WT7 cells (Huh7 stably over-expressing human PCSK9); secreted PCSK9 by AlphaLISA; overnight incubation (16-24 h); top concentration 20 μM; read-out: Cell Based PCSK9 IC50.
For another data set, the system named is Huh7 cells. The experiment in a line: Global Proteomic Assay (SILAC), non-PCSK9 proteins with decreased expression. It counts as cell-based, human.
For data set [4], the system named is PCSK9. Nature of the data set: Global Proteomic Assay (SILAC), PCSK9 protein expression in conditioned media. It counts as cell-based, human. Conditions: Huh7 cells.
Protocol: At the end of the indicated time points, media was removed and protease/phosphatase inhibitors added prior to freezing at −80° C. Cell layers were rinsed with PBS before adding cell dissociation buffer to detach the cells, cells were collected by rinsing with PBS and spun at 1000 rpm for 5 minutes. The cell pellet was resuspended in PBS for washing, spun at 1000 rpm for 5 minutes and the supernatant aspirated. The cell layer was then frozen at −80° C. and both the media and cell pellet were subjected to proteomic analysis.
(§1) For proteomic analysis of secreted proteins, equal volume of the conditioned media from light, medium, and heavy cells was mixed, followed by depletion of bovine serum albumin by anti-BSA agarose beads. The resulting proteins were subsequently concentrated using 3 KDa MWCO spin columns, reduced with dithiothreitol and alkylated with iodoacetamide.
The proteins derived from conditioned media and cell pellets were subsequently fractionated by SDS-PAGE. […]
(§2) The peptide mixtures were reconstituted in 0.1% formic acid. […] Peptide identification and relative protein quantification were carried out by searching the mass spectra against the human IPI database using Mascot search engine on Proteome Discoverer 1.3. […] Changes in protein expression upon compound treatment were calculated from the relative intensity of isotope-labeled and unlabeled peptides derived from that protein.
The test system of data set [5] is PCSK9. Nature of the data set: PCSK9 lowering in sandwich culture human hepatocytes (SCHH). The class given is cell-based. Conditions: maximum response versus vehicle; at 8 h at 30 μM.

Bounds are passed on as bounds.

Protocol for Huh7 cells: Cell layers were rinsed with PBS before adding cell dissociation buffer to detach the cells, cells were collected by rinsing with PBS and spun at 1000 rpm for 5 minutes. The cell pellet was resuspended in PBS for washing, spun at 1000 rpm for 5 minutes and the supernatant aspirated. The cell layer was then frozen at −80° C. and both the media and cell pellet were subjected to proteomic analysis.
as §1
For the analysis of cellular proteins, cell pellets were lysed in SDS-PAGE loading buffer in the presence of protease/phosphatase inhibitor cocktails. Cell lysates were centrifuged at 12000×g at 4° C. for 10 min. The resulting supernatants were collected, and protein concentrations were measured by BCA assay. Equal amount proteins in the light, medium, and heavy cell lysates were combined, reduced with dithiothreitol and alkylated with iodoacetamide.
The proteins derived from conditioned media and cell pellets were subsequently fractionated by SDS-PAGE. The gels were stained with Coomassie blue. After destaining, the gels were cut into 12-15 bands. Proteins were in-gel digested by trypsin overnight, after which peptides were extracted from the gels with CH3CN:1% formic acid (1:1, v/v). The resulting peptide mixtures were desalted with C18 Stage-Tips, dried in speedvac and stored at −20° C. until further analysis.
as §2

As to `Cn1ncc(-c2ccc(C(=O)N(c3ncccc3Cl)[C@@H]3CCCNC3)cc2)c1C(=O)O` [Example 7, 4-(4-{(3-chloropyridin-2-yl)[(3R)-piperidin-3-yl]carbamoyl}phenyl)-1-methyl-1H-pyrazole-5-carboxylic acid], the “Sandwich Culture Hepatocyte (SCHH) PCSK9 Lowering” value in the data set with PCSK9 [1] amounted to 26% at 8 h at 100 μM. Further, the IC50 (usually the concentration at which inhibition is half-maximal) with human PCSK9 [2] was 18 µM; in the data set with human PCSK9 [3], above 20 µM.

In the case of `CCOC(=O)O[C@H](C)OC(=O)c1c(-c2ccc(C(=O)N(c3ncccc3Cl)[C@@H]3CCCNC3)cc2)cnn1C` [Example 15b, (1R)-1-[(ethoxycarbonyl)oxy]ethyl 4-(4-{(3-chloropyridin-2-yl)[(3R)-piperidin-3-yl]carbamoyl}phenyl)-1-methyl-1H-pyrazole-5-carboxylate], the “additional proteins in conditioned media with significant decrease in expression” value in the data set on Huh7 cells (10 μM, 4 and 16 h, two proteins (Apolipoprotein A2, Cadherin 1) of approx. 1500) is reported as “approx. 0.13%”. Also, in the data set on PCSK9 [4] (10 μM, 4 and 16 h post-treatment), the “PCSK9 in conditioned media relative to vehicle” value is “significantly reduced”. For the same compound, the values for the IC50 in the data set with human PCSK9 [2] and with human PCSK9 [3] were 5 µM and 10.7 µM, respectively. The “Sandwich Culture Hepatocyte (SCHH) PCSK9 Lowering” value in the data set with PCSK9 [5] amounted to 58% at 8 h at 30 μM.

In the case of `Cc1cccnc1N(C(=O)c1ccc(-c2cnn(C)c2-c2noc(=O)[nH]2)cc1)[C@@H]1CCCNC1` [Example 18, 4-[1-methyl-5-(5-oxo-4,5-dihydro-1,2,4-oxadiazol-3-yl)-1H-pyrazol-4-yl]-N-(3-methylpyridin-2-yl)-N-[(3R)-piperidin-3-yl]benzamide], the “Sandwich Culture Hepatocyte (SCHH) PCSK9 Lowering” value with PCSK9 [1] was 15% at 8 h at 100 uM. Moreover, the IC50 in the data set on human PCSK9 [2] is 5.61 µM; in the data set with human PCSK9 [3], above 20 µM.

With `O=C(c1ccc(-n2nnc3cccnc32)cc1)N(c1ncccc1Cl)[C@@H]1CCCNC1` [Example 16, N-(3-chloropyridin-2-yl)-N-[(3R)-piperidin-3-yl]-4-(3H-[1,2,3]triazolo[4,5-b]pyridin-3-yl)benzamide], the “cellular proteins significantly decreased” value in the data set on Huh7 cells (2 proteins (Apolipoprotein C3, Cadherin 1) of greater than 3000 cellular proteins) is listed as 0.067%. The “additional proteins with significant reduction in expression (media and cells)” value in the data set with Huh7 cells (4 of 4083 proteins) was determined as 0.098%. Besides, the “decrease of PCSK9 protein expression in the conditioned media” value with PCSK9 [4] (16 hours of treatment, 0.3 μM) is 2 fold. The same compound returned an IC50 with human PCSK9 [2] of 0.52 µM. Besides, the “Sandwich Culture Hepatocyte (SCHH) PCSK9 Lowering” value in the data set on PCSK9 [5] is reported as 87% at 8 h at 30 μM.

As to `Cc1cccnc1N(C(=O)c1ccc(-c2cnn(C)c2-c2nn[nH]n2)cc1)[C@@H]1CCCNC1` [Example 17, N-(3-methylpyridin-2-yl)-4-[1-methyl-5-(2H-tetrazol-5-yl)-1H-pyrazol-4-yl]-N-[(3R)-piperidin-3-yl]benzamide], in the data set with PCSK9 [1], the “Sandwich Culture Hepatocyte (SCHH) PCSK9 Lowering” value came out at 63% at 8 h at 100 uM. Besides, the IC50 is 3.05 µM in the data set on human PCSK9 [2] and above 20 µM in the data set on human PCSK9 [3].

Turning to `Cc1cccnc1N(C(=O)c1ccc(-c2cnn3cccnc23)cc1)[C@@H]1CCCNC1` [Example 1, N-(3-methylpyridin-2-yl)-N-[(3R)-piperidin-3-yl]-4-(pyrazolo[1,5-a]pyrimidin-3-yl)benzamide], the IC50 in the data set with human PCSK9 [2] is 0.44 µM; in the data set with human PCSK9 [3], 3.2 µM. Also, in the data set on PCSK9 [5], the “Sandwich Culture Hepatocyte (SCHH) PCSK9 Lowering” value turned out to be 74% at 8 h at 30 μM.

The record behind these values is patent publication US9227956B2 (Pfizer Inc., priority 2013, dated 2016).
